Reference: patent US20250188088A1, “COMPOUND AND USE THEREOF” (ONQUALITY PHARMACEUTICALS CHINA LTD., priority 2022, published 2025)

Tests used:
[1] = tested on: rash caused by monoclonal EGFR inhibitors; assay: Prevention of rash caused by monoclonal EGFR inhibitors, topical ointment, rat model; assay type: in vivo, SD rats
Description: An Experiment to Verify the Prevention of Rash Caused by Monoclonal EGFR Inhibitors with Topical Administration of Compounds of the Present Application on a Rat Animal Model After the SD rats were fed and adapted for one week (about 200 g), the rats were divided into 10 rats per group. The hair on the back of rats was gently removed with an electric razor one day before the experiment, and then an administration test was carried out. The experiments were divided into the administration group with the compound of the present application and the control group. The EGFR monoclonal antibody solution diluted with normal saline was injected via the tail vein twice a week, and the injection rate and time are shown in Table 2. After injection, the administration group applied the compound ointment of the present application on the backs (about 3 cm*3 cm) of rats every day, and the control group applied blank matrix ointment (about 0.5 g) to the backs (about 3 cm*3 cm) of rats every day. After drug application, the rats were fixed with a fixed cyclinder for 4 h; after that, the rats were released and the residual drug at the application site was wiped off with clear water. Monoclonal antibody EGFR inhibitors were injected via the tail vein twice a week, and the compound of the present application and blank ointment were applied once a day until obvious rashes appeared in the control group. […] Table 2 lists the animal experiment combinations of various monoclonal antibody EGFR inhibitors and the compound ointment of the present application, as well as the corresponding experiment results (wherein, the value in the control rate column=the number of rats whose rash is milder in the administration group than that in the control group/the total number of rats in the administration group×100%).

[2] = tested on: rash caused by small molecule EGFR inhibitors; assay: Treatment of rash caused by small molecule EGFR inhibitors, topical ointment, rat model; assay type: in vivo, SD rats
Description: An Experiment to Verify the Treatment of Rash Caused by Small Molecule EGFR Inhibitors with Topical Administration of Compounds of the Present Application on a Rat Animal Model After the SD rats were fed and adapted for one week (about 200 g), the rats were divided into 10 rats per group. The hair on the back of rats was gently removed with an electric razor one day before the experiment, and then an intragastric administration test was carried out. EGFR inhibitors were dissolved in a sterile aqueous solution, and diluted with PBS buffer; the amount of each gavage was not more than 2 mL, and the dosage was shown in Table 3. […] The experiments were divided into the administration group with the compound of the present application and the control group. During the treatment experiment, EGFR inhibitors were intragastrically administered continuously every day. After the gavage, the administration group applied the compound ointment of the present application on the back (about 3 cm*3 cm) of rats, and the control group applied blank matrix ointment on the back (about 3 cm*3 cm); after application, the rats were fixed with a fixed cyclinder for about 4 hours, and then the rats were released, with the residual drug at the application site wiped off with clean water, and put back into the cage. The frequency of intragastric administration of EGFR inhibitors is shown in Table 3, but the compounds of the present application and blank ointment are applied only once a day. […] Table 3 lists the animal experiment combinations of various small molecule EGFR inhibitors and the compound ointment of the present application, as well as the corresponding experiment results (wherein, the value in the control rate column=the number of rats whose rash is milder in the administration group than that in the control group/the total number of rats in the administration group×100%).

[3] = tested on: rash caused by monoclonal EGFR inhibitors; assay: Treatment of rash caused by monoclonal EGFR inhibitors, topical ointment, rat model; assay type: in vivo; settings: SD rats
Description: An Experiment to Verify the Treatment of Rash Caused by Monoclonal EGFR Inhibitors with Topical Administration of Compounds of the Present Application on a Rat Animal Model After the SD rats were fed and adapted for one week (about 200 g), the rats were divided into 10 rats per group. The hair on the back of rats was gently removed with an electric razor one day before the experiment, and then an administration test was carried out. The EGFR monoclonal antibody solution diluted with normal saline was injected via tail vein twice a week, and the injection rate and time were shown in Table 4; the treatment experiment was started at the time point when rats developed a rash after continuous administration for 1-2 weeks. The experiments were divided into the administration group with the compound of the present application and the control group. During the treatment experiment, monoclonal antibody EGFR inhibitors were injected twice a week. the administration group applied the compound ointment of the present application on the back (about 3 cm*3 cm) of rats every day, and the control group applied blank matrix ointment on the back (about 3 cm*3 cm); after application, the rats were fixed with a fixed cyclinder for about 4 hours, and then the rats were released, with the residual drug at the application site wiped off with clean water, and put back into the cage. […] Table 4 lists the animal experiment combinations of monoclonal antibody EGFR inhibitors and the compound ointment of the present application, as well as the corresponding experiment results (wherein, the value in the control rate column=the number of rats whose rash is milder in the administration group than that in the control group/the total number of rats in the administration group×100%).

[4] = Plasma stability, mini pig plasma; assay type: in vitro ADME, Mini Pigs; settings: 37° C.
Description: (§1) In addition, the plasma stability of these compounds was determined. Briefly, the determination method comprises the following steps: • 1) Thaw the frozen mixed plasma in a 37° C. water bath before testing, and then centrifuge at 4000 rpm for 5 min to remove blood clots; • 2) Add 98 μL blank plasma into each well of the 96-well reaction plate; • 3) In addition to the blank samples, add 2 μL of 100 μM working solution of test compound into each well; • 3) Incubate the reaction plate at 37° C. and start timing. Incubation times were 0, 10, 30, 60 and 120 minutes, respectively, with two replicate wells at each time point; • 4) Terminate the incubation at the corresponding time point, and add 400 μL of acetonitrile solution containing 200 ng/mL tolbutamide and 200 ng/mL labetalol to precipitate proteins; • 5) Shake each plate for 20 minutes, then centrifuge at 4000 rpm for 20 minutes, transfer 50 μL of supernatant to another 96-well plate, and dilute each sample with 100 μL of pure water; • 6) Analyze the sample by LC-MS/MS.

[5] = Plasma stability, human plasma; assay type: in vitro ADME, Humans; settings: 37° C.
Description: as §1
The experiment results are as follows, and it can be seen from the test results that the selected compounds are easily metabolized to the target compound in human plasma.

[6] = Cetuximab 100 mg/kg twice a week via tail vein, ointment 0.2 wt% once a day, 10 days
[7] = Panitumumab 10 mg/kg twice a week via tail vein, ointment 1.0 wt% once a day, 14 days
[8] = Panitumumab 10 mg/kg twice a week via tail vein, ointment 5.0 wt% once a day, 14 days
[9] = EAI045 80 mg/kg once a day, 8 dosing modelling days, ointment 1.0 wt% once a day
[10] = Cetuximab 102 mg/kg twice a week via tail vein, ointment 5.0 wt%, 10 days of drug application
[11] = Cetuximab 100 mg/kg twice a week via tail vein, ointment 5.0 wt% once a day, 10 days

## C[C@@H]1CN(C(=O)CC#N)[C@@]12CCN(c1ncnc3c1ccn3C(=O)N(C)CCOC(=O)C1CC1)C2 [Compound A27]
[1]; [6]
  Control Rate: 20%
[1]; Cetuximab 100 mg/kg twice a week via tail vein, ointment 3.0 wt% once a day, 10 days
  Control Rate: 40%
[1]; [7]
  Control Rate: 45%
[1]; [8]
  Control Rate: 70%
[2]; [9]
  Control Rate: 60%
[2]; EAI045 80 mg/kg once a day, 8 dosing modelling days, ointment 3.0 wt% once a day
  Control Rate: 80%
[2]; Osimertinib 60 mg/kg twice a day, 7 dosing modelling days, ointment 0.2 wt% once a day
  Control Rate: 40%
[2]; Osimertinib 60 mg/kg twice a day, 7 dosing modelling days, ointment 4.0 wt% once a day
  Control Rate: 100%
[3]; Cetuximab 102 mg/kg twice a week via tail vein, ointment 1.0 wt%, 10 days of drug application
  Control Rate: 30%
[3]; [10]
  Control Rate: 80%
[3]; Panitumumab 6 mg/kg twice a week via tail vein, ointment 0.1 wt%, 8 days of drug application
  Control Rate: 60%
[3]; Panitumumab 6 mg/kg twice a week via tail vein, ointment 3.0 wt%, 8 days of drug application
  Control Rate: 90%

## C[C@@H]1CN(C(=O)CC#N)[C@@]12CCN(c1ncnc3c1ccn3C(=O)N(C)CCOC(=O)C1CCCCC1)C2 [Compound A28]
[1]; [6]
  Control Rate: 30%
[1]; [11]
  Control Rate: 70%
[1]; Panitumumab 10 mg/kg twice a week via tail vein, ointment 0.2 wt% once a day, 14 days
  Control Rate: 45%
[1]; [8]
  Control Rate: 100%
[2]; BPI-7711 60 mg/kg once a day, 6 dosing modelling days, ointment 3.0 wt% once a day
  Control Rate: 80%
[2]; Dacomitinib 10 mg/kg once a day, 5 dosing modelling days, ointment 0.2 wt% once a day
  Control Rate: 30%
[2]; Dacomitinib 10 mg/kg once a day, 5 dosing modelling days, ointment 2.0 wt% once a day
  Control Rate: 60%
[2]; Dacomitinib 10 mg/kg once a day, 5 dosing modelling days, ointment 5.0 wt% once a day
  Control Rate: 80%
[2]; Dacomitinib 10 mg/kg once a day, 5 dosing modelling days, ointment 10.0 wt% once a day
  Control Rate: 60%
[2]; [9]
  Control Rate: 40%
[2]; EAI045 80 mg/kg once a day, 8 dosing modelling days, ointment 10.0 wt% once a day
  Control Rate: 100%
[2]; Gefitinib 80 mg/kg twice a day, 10 dosing modelling days, ointment 1.0 wt% once a day
  Control Rate: 30%
[2]; Gefitinib 80 mg/kg twice a day, 10 dosing modelling days, ointment 5.0 wt% once a day
  Control Rate: 30%
[2]; Larotinib 20 mg/kg once a day, 6 dosing modelling days, ointment 3.0 wt% once a day
  Control Rate: 40%
[2]; Osimertinib 60 mg/kg twice a day, 7 dosing modelling days, ointment 0.5 wt% once a day
  Control Rate: 20%
[2]; Osimertinib 60 mg/kg twice a day, 7 dosing modelling days, ointment 5.0 wt% once a day
  Control Rate: 60%
[3]; Cetuximab 102 mg/kg twice a week via tail vein, ointment 0.3 wt%, 10 days of drug application
  Control Rate: 40%
[3]; [10]
  Control Rate: 70%
[3]; Panitumumab 6 mg/kg twice a week via tail vein, ointment 2.0 wt%, 8 days of drug application
  Control Rate: 60%
[3]; Panitumumab 6 mg/kg twice a week via tail vein, ointment 10.0 wt%, 8 days of drug application
  Control Rate: 100%

## CCCCC(=O)OCCN(C)C(=O)n1ccc2c(N(C)[C@H]3CN(C(=O)CC#N)CC[C@H]3C)ncnc21 [Compound A22]
[4]
  half-life at 2 µM: 6.3 min
[4]; 0 min
  % Retained: 100.0%
[4]; 10 min
  % Retained: 25.5%
[4]; 30 min
  % Retained: 1.8%
[4]; 60 min
  % Retained: 0.1%
[4]; 120 min
  % Retained: 0.1%
[5]
  half-life at 2 µM: 3.1 min
[5]; 0 min
  % Retained: 100.0%
[5]; 10 min
  % Retained: 4.5%
[5]; 30 min
  % Retained: 0.1%
[5]; 60 min
  % Retained: 0.1%
[5]; 120 min
  % Retained: 0.0%
[1]; Cetuximab 100 mg/kg twice a week via tail vein, ointment 0.3 wt% once a day, 10 days
  Control Rate: 20%
[1]; [11]
  Control Rate: 40%
[1]; [7]
  Control Rate: 30%
[1]; Panitumumab 10 mg/kg twice a week via tail vein, ointment 10.0 wt% once a day, 14 days
  Control Rate: 65%
